{"source": "paper PMC12444472", "about": "“BCI inhibits MKP3 by targeting the kinase-binding domain and disrupting ERK2 interaction” (The Journal of Biological Chemistry, 2025)", "key": {"MKP3 E81G": {"molecular_target": "T1, MKP3 E81G (Homo sapiens, UniProt Q16828, E81G)", "T1 construct": "MKP3(1–381) (MKP3^FL); made in house; host or cells: Escherichia coli BL21(DE3)", "T1 sequence (Q16828 1-381 E81G)": "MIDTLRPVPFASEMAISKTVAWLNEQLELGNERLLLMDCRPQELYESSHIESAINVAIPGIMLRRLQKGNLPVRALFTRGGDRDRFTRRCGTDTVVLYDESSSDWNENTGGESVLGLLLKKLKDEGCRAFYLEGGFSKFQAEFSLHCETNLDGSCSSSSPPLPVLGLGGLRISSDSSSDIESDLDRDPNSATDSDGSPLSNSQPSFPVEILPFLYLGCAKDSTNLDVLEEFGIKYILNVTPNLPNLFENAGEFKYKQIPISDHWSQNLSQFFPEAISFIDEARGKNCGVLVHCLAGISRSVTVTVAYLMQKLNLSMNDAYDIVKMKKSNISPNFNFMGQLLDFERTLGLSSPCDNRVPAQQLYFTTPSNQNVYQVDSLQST", "test": "MST affinity of MKP3 mutant", "format": "binding", "details": "full-length mutant", "procedure": "(§1) MST measurements were performed using fluorescently labeled proteins and the inhibitor BCI (CAS: 1245792-51-1; TargetMol) on a Monolith instrument (NanoTemper Technologies). The RED–Tris–NTA second-generation dye was dissolved in MST buffer (20 mM Hepes, pH 7.4, 200 mM NaCl, and 0.05% Tween-20) to prepare a 5 μM stock solution. Fluorescent labeling of MKP proteins followed the standard protocol of the MO-L018 RED–Tris–NTA protein labeling kit, leveraging the His-tag–dye interaction.\n(§2) The BCI compound was prepared as a 600 to 750 μM stock solution in MST buffer with 10% DMSO to enhance solubility, followed by a 16-point serial dilution. The diluted BCI solutions were thoroughly mixed with labeled MKP proteins (50 nM) at a 1:1 volume ratio, yielding a final volume of 10 μl. The reaction mixtures were incubated in the dark for 10 min at room temperature before being loaded into standard glass capillaries. Measurements were carried out on the Monolith instrument (100% LED, 40% IR laser power) with a 20 s laser on time. The normalized fluorescence values from triplicate measurements were averaged at each concentration and fitted to a 1:1 binding model using the KD model in MO.Affinity software (v3.0.5, NanoTemper Technologies) to determine the binding affinities between MKP proteins and the BCI inhibitor. The final reported Kd value represents the mean ± SD of Kd values obtained from three independent experiments, each fitted separately.\n(§3) Figure S3. Affinity measurements of MKP3 mutants with BCI by MST. The binding affinities of full-length MKP3 mutants (E81G, R83G, R85G, R87G, and R89A) to BCI were determined by MST and are presented as mean ± SD (n = 3). Wild-type MKP3 (MKP3^WT) was included as a reference."}, "MKP3 R83G": {"molecular_target": "T2, MKP3 R83G (Homo sapiens, UniProt Q16828, R83G)", "T2 construct": "MKP3(1–381) (MKP3^FL); made in house; host or cells: Escherichia coli BL21(DE3)", "T2 sequence (Q16828 1-381 R83G)": "T1 sequence (Q16828 1-381 E81G) with G81E, R83G", "test": "MST affinity of MKP3 mutant", "format": "binding", "details": "full-length mutant", "procedure": "as §1, §2, §3"}, "MKP3 R85G": {"molecular_target": "T3, MKP3 R85G (Homo sapiens, UniProt Q16828, R85G)", "T3 construct": "MKP3(1–381) (MKP3^FL); made in house; host or cells: Escherichia coli BL21(DE3)", "T3 sequence (Q16828 1-381 R85G)": "T1 sequence (Q16828 1-381 E81G) with G81E, R85G", "test": "MST affinity of MKP3 mutant", "format": "binding", "details": "full-length mutant", "procedure": "as §1, §2, §3"}, "MKP3": {"tested_on": "MKP3", "details": "cited from earlier work"}}, "note": "Changes are numbered by the printed parent chain."}
{"smiles": "O=C1/C(=C/c2ccccc2)C(NC2CCCCC2)c2ccccc21", "note": "(centres unmarked) [BCI, (E)-2-benzylidene-3-(cyclohexylamino)-2,3-dihydro-1H-inden-1-one]", "values": [{"measurement": "affinity for BCI compared with MKP3^WT", "setting": "MKP3 E81G", "result": "significantly reduced affinity"}, {"measurement": "affinity for BCI compared with MKP3^WT", "setting": "MKP3 R83G", "result": "significantly reduced affinity"}, {"measurement": "affinity for BCI compared with MKP3^WT", "setting": "MKP3 R85G", "result": "affinities similar to the WT"}, {"measurement": "effect on ERK2-mediated MKP3 activity", "setting": "MKP3; ERK2-stimulated, OMFP substrate", "result": "inhibits"}, {"measurement": "effect on MKP3's basal activity toward OMFP", "setting": "MKP3; basal, without ERK2", "result": "does not affect"}]}
